In patent publication US20190022096A1, “METHODS OF TREATING CANCER” (Corvus Pharmaceuticals, Inc., priority 2017, published 2019):
Several values for one entry are separate records, joined by “and”; a condition that tells them apart may be missing. Equal entries are not always repeated. Entries after “also recorded” stand apart in the source; their conditions may differ.

Legend:
Renca = settings: CPI-444 10 mg/kg from Day 16, 14 days; 50 mg/kg Cyclophosphamide on first day
CT26 colon tumors = experiment: Syngeneic CT26 mouse colon cancer model; settings: CPI-444 100 mg/kg oral Day 0, 12 days, anti-PD-1 100 ug i.p. days 7, 9, 11, 13
Description: Treatment continued for 12 days.
Treatment continued for 7 days. […] Treatment continued for 7 days.
Treatment continued for 7 days.

A2AR [1] = target: T1, A2AR (Homo sapiens, UniProt P29274); experiment: cAMP production in NECA-stimulated primary human T cells (LANCE Ultra cAMP); assay type: cell-based; set-up: endogenous in cells; host or cells: primary human T cells / human PBMCs
Method: Adenosine signaling through A2AR leads to increases in the levels of cAMP.
T cells were isolated from human PBMC by negative selection and activated via CD3/CD28 stimulation for 48 hours to induce A2AR expression. Stimulated T cells were then “rested” for 24 hours by removal of CD3/CD28 stimulation in order to minimize background levels of cAMP.

A2AR [2] = target: T1, A2AR; experiment: pCREB in fresh PBMCs (B cell population) stimulated with NECA; settings: primarily B cells
Description: Adenosine signaling via A2AR leads to an increase in intracellular cAMP and subsequent phosphorylation of CREB.

[3] = test system: NECA-induced pCREB in B cells; experiment: NECA-induced pCREB in B cells of whole blood of treated patients (flow cytometry)
Method: (§1) On day 14, blood was collected prior to dosing (0 hr, trough) and for a time course post-dose (1.5, 3, 5.5, 8 hr) (FIGS. 26-28). The level of signaling was determined and the percent inhibition on Day 14 compared to Day 1 pre-treatment was calculated.

[4] = test system: NECA-induced pCREB in CD4+ T cells; experiment: NECA-induced pCREB in CD4+ T cells of whole blood of treated patients (flow cytometry)
Method: as §1

[5] = cited from earlier work
A2AR [6] = target: T1, A2AR; experiment: IL-2 and IFNγ secretion from activated primary human PBMCs (AlphaLISA); assay type: cell-based; set-up: endogenous in cells; host or cells: primary human T cells / human PBMCs; settings: CPI-444 1 μM; NECA or CGS21680 1 μM; anti-CD3/anti-CD28 48 hours
Method: Purified anti-CD3 and anti-CD28 monoclonal antibodies (1 ug/ml) were then added to activate T cells for 48 hours.
Purified anti-CD3 and anti-CD28 monoclonal antibodies (1 ug/ml) were then added to activate T cells for 48 hours. In this study, AlphaLISA assays (PerkinElmer) analyzed on an EnVision MultiLabel Reader were used to measure cytokine release according to the manufacturer's instructions.

EL4 lymphoma = experiment: Syngeneic EL4 mouse lymphoma model; assay type: in vivo; settings: CPI-444 10, 30, 100 mg/kg daily oral
Method: Syngeneic C57BL/6 female mice (8-10 weeks old) were injected (via subcutaneous route) with EL4 cells.

MC38 colon tumors = experiment: Syngeneic MC38 mouse colon carcinoma model
[7] = Plasma levels of CPI-444 in patients; assay type: in vivo, human; settings: Day 14
A2AR [8] = target: T1, A2AR; experiment: pERK in human CD4+ T cells after TCR cross-linking; settings: in the presence of NECA (1 μM)
solid tumor patients = experiment: Phase 1/1b clinical trial in solid tumor patients; assay type: in vivo, human
Method: After a dose selection stage, pts are treated in 10 disease specific cohorts (5 single agent and 5 combination). Cohorts may be expanded based on response criteria: complete response, partial response or stable disease (SD). Biomarkers are evaluated including immune cells by flow cytometry in peripheral blood and pre/post treatment tumor biopsies as well as adenosine pathway modulation by immunohistochemistry and gene expression.
In step 1 of the trial, patients were dosed with either 100 mg BID for 14 days out of a 28 day cycle, 100 mg BID for 28 days, 200 mg QD for 14 days or 50 mg or 100 mg BID for 14 days in combination with […]® (840 mg Q2W). Pharmacodynamic analysis was conducted on peripheral blood cells to inform dose selection. Step 1 of Phase1/1b was fully enrolled (n=48) and dose was selected (100 mg BID) based on pharmacodynamic analysis of A2AR pathway.

T1 sequence (P29274 whole entry): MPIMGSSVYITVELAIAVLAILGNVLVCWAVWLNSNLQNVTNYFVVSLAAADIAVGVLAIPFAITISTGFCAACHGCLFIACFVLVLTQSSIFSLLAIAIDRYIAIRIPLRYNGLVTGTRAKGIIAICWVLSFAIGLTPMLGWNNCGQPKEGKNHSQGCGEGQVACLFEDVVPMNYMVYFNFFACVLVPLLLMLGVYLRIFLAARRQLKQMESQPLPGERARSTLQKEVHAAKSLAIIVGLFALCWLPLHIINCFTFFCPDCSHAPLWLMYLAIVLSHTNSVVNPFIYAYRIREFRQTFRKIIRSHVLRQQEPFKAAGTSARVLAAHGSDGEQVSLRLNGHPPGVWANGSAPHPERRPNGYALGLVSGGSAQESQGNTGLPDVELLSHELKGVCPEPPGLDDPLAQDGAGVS

O=P1(N(CCCl)CCCl)NCCCO1 (centres unmarked) [Cyclophosphamide]
tumor growth / response rate (Renca): slight tumor growth inhibition

Cc1ccc(-c2nc(N)nc3c2nnn3Cc2cccc(COC3CCOC3)n2)o1 (centres unmarked) [CPI-444]
tumor growth, single agents (CT26 colon tumors): inhibition of tumor growth; also recorded: inhibits the growth; also recorded: non-significant reductions in tumor growth
cAMP production upon NECA stimulation, dependence on CPI-444 dose (A2AR [1]; FIG. 6): dose-dependent manner
production of cAMP upon NECA treatment (A2AR [1]; all levels of NECA tested (10^-5 to 10^-9 M), 10 minutes): completely blocked
NECA-induced CREB phosphorylation (A2AR [2]): completely inhibited
inhibition of pCREB ([3]; 50 mg BID cohort): not high enough for sustained inhibition; also recorded: Variable inhibition
inhibition of pCREB ([3]; 100 mg BID cohort): highest pCREB inhibition at trough and near complete inhibition after taking their morning dose; also recorded: high pCREB inhibition at trough and near complete inhibition after taking their morning dose
patients with complete and sustained inhibition of NECA-induced pCREB ([3]; 100 mg BID single agent, Day 14): 7 of 7
inhibition of pCREB ([3]; 200 mg QD cohort): achieves high peak levels but is not maintained at trough; also recorded: Variable inhibition
pCREB induction by NECA ([3]; following 14 days of treatment): attenuated
inhibition of NECA induced increase of pCREB ([3]; one subject, 200QD for 14 days, 1 μM NECA): partial inhibition
CPI-444 plasma level above which pCREB inhibition is near complete [4]: greater than 2,000 ng/mL
adverse events ([5]; 75 subjects previously dosed): no significant adverse events
tolerability ([5]; non-oncology indications): well tolerated
IFNγ secretion in presence of A2AR agonist (A2AR [6]): restored
IL-2 secretion in presence of A2AR agonist (A2AR [6]): restored
response of established primary tumors (EL4 lymphoma): minimal therapeutic response
tumor growth in regional lymph nodes (number and size of enlarged nodes) (EL4 lymphoma): significant dose-dependent inhibition; also recorded: significant, dose-dependent decrease
mice in which rechallenge tumors were fully rejected (MC38 colon tumors; 9 mice rechallenged, over 15 days after first 5 days): 9 mice
tumor growth (MC38 colon tumors; CPI-444 1 mg/kg daily oral gavage 28 days, from one day after engraftment): did not inhibit tumor growth
tumor growth (MC38 colon tumors; CPI-444 10 mg/kg daily oral, 10 mg/kg): significantly inhibits; also recorded: significant inhibition of tumor growth
tumor growth (MC38 colon tumors; CPI-444 100 mg/kg daily oral, 100 mg/kg): significantly inhibits; also recorded: significant inhibition of tumor growth
eliminates tumors (MC38 colon tumors; CPI-444 100 mg/kg from Day 9, 14 days, anti-CTLA-4 9H10 100 ug days 9, 12, 15, 18): 20 % of mice
tumor growth, single agents (MC38 colon tumors; CPI-444 100 mg/kg from Day 9, anti-CTLA-4 100 ug): moderate tumor growth inhibition
tumor growth, single agents (MC38 colon tumors; CPI-444 100 mg/kg oral Day 0, 12 days, anti-PD-L1 200 ug i.p. days 7, 10, 13, 16): inhibition of tumor growth
eliminated tumors (MC38 colon tumors; CPI-444 dose response study): 30 % of mice
tumor growth on re-challenge of cured mice (MC38 colon tumors; MC38 re-challenge): fully inhibited
signs of reoccurrence (MC38 colon tumors; additional 6 weeks after end of study): No tumor growth was observed
complete tumor regression (MC38 colon tumors; all cohorts (1, 10, 100 mg/kg)): observed in a subset of mice
inhibition of tumor growth, dose response (MC38 colon tumors; daily CPI-444 1, 10, 100 mg/kg): dose-dependent inhibition
tumor elimination (MC38 colon tumors; daily CPI-444 1, 10, 100 mg/kg): 9/30
protected from rechallenge (MC38 colon tumors; mice with complete tumor growth inhibition, new MC38 engraftment, no additional treatment): 100%
levels of immune checkpoints GITR, OX40, LAG3 on tumor infiltrating lymphocytes and circulating T cells (MC38 colon tumors; mouse, in vivo): modulated
CD73 expression in tumors (IHC, frequency x intensity) (MC38 colon tumors; relative to control): significantly higher
time of peak plasma drug levels [7]: 3 h
ERK signaling / pERK levels in CD4+ T cells (A2AR [8]): restored pERK levels in a dose-dependent manner
Grade 3 or 4 treatment related adverse events (solid tumor patients; 7 pts treated to date): no Grade 3 or 4 treatment related adverse events
TCR clonality following treatment (solid tumor patients; Nivolumab-refractory lung cancer patient, FIG. 21C): increased clonality
tumor response (solid tumor patients; Nivolumab-refractory lung cancer patient, single agent 100 mg po BID x 28 days/cycle): Tumor regression
PD-1+/CD8+ (activated CD8) and memory cell frequencies in blood (solid tumor patients; single agent and combination cohorts): Increases
TCR repertoire in peripheral blood (solid tumor patients; single agent, some patients): robust changes; also recorded: induced
tolerability (solid tumor patients; solid tumor patients): well tolerated
increases in PD-1+CD8+ cells in peripheral blood compared to baseline (solid tumor patients; the two pts with SD): 1.7 fold and 2.4 fold

COc1cccc2c1C(=O)c1c(O)c3c(c(O)c1C2=O)C[C@@](O)(C(=O)CO)C[C@@H]3O[C@H]1C[C@H](N)[C@H](O)[C@H](C)O1 [Doxorubicin, reference compound]
tumor growth (MC38 colon tumors; CPI-444 100 mg/kg from Day 11, 14 days, 4 mg/kg Doxorubicin on first day): slight tumor growth inhibition
